The target in test [1] is T1, Cbl-b (Homo sapiens, UniProt Q13191). Kind of test: Cbl-b activity assay (Cbl-b inhibition assay), TR-FRET of Cbl-b interaction with UbcH5B-Ub. In kind it is biochemical. Summed up: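 Compound-treated Cbl-b was incubated 1.5 h with Src kinase (60 nM final; 30 nM for asterisked values, which also used 50 mM instead of 100 mM NaCl), 1 mM ATP and 5 mM MgCl2. Binding to fluorescent Ub-loaded UbcH5B (C85K mutant) was then read by TR-FRET after 1 h more.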
Background: Time-resolved FRET reads energy transfer from a long-lived donor to a nearby acceptor.

Test [2] deals with T-cell. Kind of test: CD25 cell surface staining on T-cells co-stimulated with anti-CD3 and anti-CD28 antibody (Biological Example 2). Type of test: cell-based, human. The settings on record: Homo sapiens, T-cell, fold change over baseline, primary human total T-cells, read-out: CD25 staining Anti-CD3/Anti-CD28 stimulation; for fold induction at 0.3 µM: 0.3 μM Cbl-b inhibitor; for fold induction at 1 µM: 1 μM Cbl-b inhibitor; for fold induction at 4 µM: 4 μM Cbl-b inhibitor. Summed up: (§1)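 Values are fold-change over baseline: readings (IL-2 release, CD25 staining) from inhibitor-treated T-cells divided against untreated cells […]. No detailed procedure stated.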

Test [3] deals with T1, Cbl-b. Kind of test: Cbl-b inhibition assay (Cbl-b activity assay, FRET, Biological Example 1; 100 mM NaCl, 60 nM Src kinase). In kind it is biochemical. The settings on record: upper bound stated in text lists; read-out: IC50 values in the Cbl-b inhibition assay of Biological Example 1. Summed up:
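Steps: Src kinase phosphorylates N-terminal biotinylated Avi-tagged Cbl-b; phosphorylated Cbl-b binds Bodipy-fluorescein ubiquitin-loaded UbcH5B; streptavidin-terbium on Cbl-b sits close to the fluorescein label, producing FRET. Inhibitors block UbcH5B-Ub binding.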

The subject of test [4] is T-cell. Kind of test: IL-2 secretion from T-cells co-stimulated with anti-CD3 and anti-CD28 antibody (Biological Example 2). In kind it is cell-based, human. The settings on record: Homo sapiens, T-cell, fold change over baseline, primary human total T-cells, read-out: IL-2 secretion Anti-CD3/Anti-CD28 stimulation; for fold induction at 0.3 µM: 0.3 μM Cbl-b inhibitor; for fold induction at 1 µM: 1 μM Cbl-b inhibitor; for fold induction at 4 µM: 4 μM Cbl-b inhibitor. Summed up:
as §1

For test [5], the target named is Cbl-b (residues 36-427) (Homo sapiens, UniProt Q13191). Kind of test: Cbl-b binding assay (SPR, Biacore T200). The settings on record: 20° C., 1:1 binding model. Summed up:
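NeutrAvidin capture chip, 20° C; 50 s injections at 50 μl/min, 90-180 s dissociation; 0.3 M NaCl regeneration. Asterisked column: 50 mM NaCl buffer and 30 nM Src kinase in place of 100 mM NaCl and 60 nM Src kinase. 1:1 fit.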
For orientation: Surface plasmon resonance follows binding to a sensor surface in real time, without labels.

The mark [6] stands for this setting: assay buffer with 100 mM NaCl, 60 nM Src kinase, read-out: Cbl-b activity IC50.

Each structure is given as a SMILES string. Where only a bound is given, the exact number is not on record here.

The IC50 is the concentration that gives 50% inhibition. For orientation: Kd means a measure of binding affinity in units of concentration.

T1 sequence (Q13191 36-427): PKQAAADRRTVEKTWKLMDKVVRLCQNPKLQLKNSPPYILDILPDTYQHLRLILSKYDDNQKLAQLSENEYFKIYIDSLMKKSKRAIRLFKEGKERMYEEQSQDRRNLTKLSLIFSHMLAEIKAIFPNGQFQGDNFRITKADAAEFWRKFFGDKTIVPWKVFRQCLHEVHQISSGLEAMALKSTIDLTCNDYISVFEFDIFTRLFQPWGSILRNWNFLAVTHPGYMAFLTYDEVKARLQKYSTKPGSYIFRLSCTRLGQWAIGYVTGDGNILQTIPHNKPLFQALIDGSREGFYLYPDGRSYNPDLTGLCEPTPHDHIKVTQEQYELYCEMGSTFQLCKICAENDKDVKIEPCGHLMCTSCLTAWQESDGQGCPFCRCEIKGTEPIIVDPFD
Chain of Cbl-b (residues 36-427) (Q13191 36-427): as above

`Cc1ccc(C(=O)Nc2cccc([C@H](C)Sc3nncn3C)c2)nc1C` [Compound 35, (S)-5,6-Dimethyl-N-(3-(1-((4-methyl-4H-1,2,4-triazol-3-yl)thio)ethyl)phenyl)picolinamide]: the IC50 in test [1] (* assay buffer containing 50 mM NaCl instead of 100 mM NaCl and 30 nM Src kinase instead of 60 nM, read-out: Cbl-b activity IC50 (μM)*) is 0.301 to 1 µM; in test [1] (setting [6]), 0.301 to 1 µM; in test [3], at most 1000 nM. Also, the figures for the fold induction at 0.3 µM in test [2] and in test [4] were below 1 and 1.01 to 2.5, respectively. The fold induction at 1 µM in test [2] lay in the range of 1.01 to 1.3; in test [4], 2.51 to 5. For the same molecule, the fold induction at 4 µM in test [2] was 1.31 to 1.5; in test [4], 2.51 to 5. In addition, in test [5], the Kd was in the range of 3000 to 10000 nM.
Consider `Cc1cccc2nc(C(=O)Nc3cccc([C@H](C)Sc4nncn4C)c3)ccc12` [Compound 48, 5-Methyl-N-[3-[(1S)-1-[(4-methyl-4H-1,2,4-triazol-3-yl)sulfanyl]ethyl]phenyl]quinoline-2-carboxamide], for which the IC50 is 0.301 to 1 µM in test [1] (setting [6]) and at most 500 nM in test [3]. In addition, the fold induction at 0.3 µM in test [2] was in the range of 1.01 to 1.3; in test [4], 2.51 to 5. The results for the fold induction at 1 µM in test [2] and in test [4] were 1.01 to 1.3 and 5 to 7.5, respectively. Besides, the fold induction at 4 µM is 1.01 to 1.3 in test [2] and above 7.5 in test [4]. For the same molecule, the Kd in test [5] is 1000 to 3000 nM.
Consider `C[C@H](Sc1nncn1C)c1cccc(NC(=O)c2ccc(Cl)c(C(F)(F)F)n2)c1` [Compound 51, (S)-5-chloro-N-(3-(1-((4-methyl-4H-1,2,4-triazol-3-yl)thio)ethyl)phenyl)-6-(trifluoromethyl)picolinamide], for which, in test [1] (setting [6]), the IC50 was in the range of 0.1 to 0.3 µM. Further, in test [2], the fold induction at 0.3 µM was in the range of 1.01 to 1.3, the fold induction at 1 µM was in the range of 1.01 to 1.3 and the fold induction at 4 µM was 1.01 to 1.3. For the same molecule, the IC50 in test [3] is at most 500 nM. In addition, in test [4], the fold induction at 0.3 µM is below 1, the fold induction at 1 µM is below 1 and the fold induction at 4 µM lay within 1.01 to 2.5. In test [5], this molecule returned a Kd of 301 to 1000 nM.
`C[C@H](Sc1nncn1C)c1cccc(NC(=O)c2cc(C(C)(C)O)c(Cl)cn2)c1` [Compound 55, (S)-5-chloro-4-(2-hydroxypropan-2-yl)-N-(3-(1-((4-methyl-4H-1,2,4-triazol-3-yl)thio)ethyl)phenyl)picolinamide]: the IC50 in test [1] (setting [6]) fell in the range of 0.301 to 1 µM. In test [2], the fold induction at 0.3 µM lay in the range of 1.01 to 1.3, the fold induction at 1 µM lay in the range of 1.01 to 1.3 and the fold induction at 4 µM is 1.01 to 1.3. The IC50 in test [3] is at most 1000 nM. In test [4], the fold induction at 0.3 µM was in the range of 1.01 to 2.5, the fold induction at 1 µM fell in the range of 1.01 to 2.5 and the fold induction at 4 µM fell in the range of 1.01 to 2.5. In addition, the Kd in test [5] is 1000 to 3000 nM.
Regarding `Cc1cc(C)nc(C(=O)Nc2cccc([C@H](C)Sc3nncn3C)c2)c1` [Compound 56, (S)-4,6-dimethyl-N-(3-(1-((4-methyl-4H-1,2,4-triazol-3-yl)thio)ethyl)phenyl)picolinamide], the IC50 in test [1] (setting [6]) was 0.301 to 1 µM; in test [3], at most 1000 nM. The fold induction at 0.3 µM lay within 1.01 to 1.3 in test [2] and 2.51 to 5 in test [4]. The fold induction at 1 µM in test [2] lay within 1.01 to 1.3; in test [4], 5 to 7.5. Further, the fold induction at 4 µM is 1.01 to 1.3 in test [2] and above 7.5 in test [4]. The molecule further yielded a Kd in test [5] of 1000 to 3000 nM.
For `Cc1ccc(C(=O)Nc2cccc([C@H](C)Sc3nncn3C)c2)nc1C(F)(F)F` [Compound 61, (S)-5-methyl-N-(3-(1-((4-methyl-4H-1,2,4-triazol-3-yl)thio)ethyl)phenyl)-6-(trifluoromethyl)picolinamide], the IC50 in test [1] (setting [6]) was 0.1 to 0.3 µM. Further, in test [2], the fold induction at 0.3 µM is below 1, the fold induction at 1 µM lay within 1.01 to 1.3 and the fold induction at 4 µM lay in the range of 1.01 to 1.3. Moreover, the IC50 in test [3] is at most 500 nM. Also, in test [4], the fold induction at 0.3 µM is below 1, the fold induction at 1 µM was below 1 and the fold induction at 4 µM lay within 1.01 to 2.5. The Kd in test [5] lay in the range of 100 to 300 nM.
In the case of `COc1nc(C(=O)Nc2cccc([C@H](C)Sc3nncn3C)c2)cc2ccccc12` [Compound 62, (S)-1-methoxy-N-(3-(1-((4-methyl-4H-1,2,4-triazol-3-yl)thio)ethyl)phenyl)isoquinoline-3-carboxamide], the figures for the IC50 in test [1] (setting [6]) and in test [3] were 0.1 to 0.3 µM and at most 500 nM, respectively. In addition, the fold induction at 0.3 µM was below 1 in test [2] and 2.51 to 5 in test [4]. In addition, the fold induction at 1 µM is 1.01 to 1.3 in test [2] and 5 to 7.5 in test [4]. Besides, the figures for the fold induction at 4 µM in test [2] and in test [4] were 1.01 to 1.3 and above 7.5, respectively. Moreover, the Kd in test [5] was 301 to 1000 nM.
Turning to `C[C@H](Sc1nncn1C)c1cccc(NC(=O)c2cc(C(F)(F)F)cc(C(F)(F)F)n2)c1` [Compound 64, (S)-N-(3-(1-((4-methyl-4H-1,2,4-triazol-3-yl)thio)ethyl)phenyl)-4,6-bis(trifluoromethyl)picolinamide], the IC50 in test [1] (setting [6]) is 0.301 to 1 µM. In addition, in test [2], the fold induction at 0.3 µM was below 1, the fold induction at 1 µM was below 1 and the fold induction at 4 µM was in the range of 1.01 to 1.3. Also, in test [3], the IC50 was at most 1000 nM. In addition, in test [4], the fold induction at 0.3 µM was below 1, the fold induction at 1 µM was below 1 and the fold induction at 4 µM fell in the range of 1.01 to 2.5. The dissociation constant (Kd) in test [5] lay in the range of 1000 to 3000 nM.
Consider `C[C@H](Sc1nncn1C)c1cccc(NC(=O)c2cc(Cl)cc(C(F)(F)F)n2)c1` [Compound 68, (S)-4-chloro-N-(3-(1-((4-methyl-4H-1,2,4-triazol-3-yl)thio)ethyl)phenyl)-6-(trifluoromethyl)picolinamide], for which the IC50 in test [1] (setting [6]) is 0.1 to 0.3 µM; in test [3], at most 500 nM. Besides, the values for the fold induction at 0.3 µM in test [2] and in test [4] were 1.01 to 1.3 and 1.01 to 2.5, respectively. Moreover, the fold induction at 1 µM lay in the range of 1.01 to 1.3 in test [2] and 1.01 to 2.5 in test [4]. For the same molecule, the fold induction at 4 µM in test [2] fell in the range of 1.01 to 1.3; in test [4] it was 1.01 to 2.5. In test [5], this molecule returned a Kd of 301 to 1000 nM.
As for `C[C@H](Sc1nncn1C)c1cccc(NC(=O)c2cc(C(F)(F)F)cc(C3CC3)n2)c1` [Compound 69, (S)-6-cyclopropyl-N-(3-(1-((4-methyl-4H-1,2,4-triazol-3-yl)thio)ethyl)phenyl)-4-(trifluoromethyl)picolinamide], the IC50 in test [1] (setting [6]) lay in the range of 0.301 to 1 µM. In test [2], the fold induction at 0.3 µM lay in the range of 1.01 to 1.3, the fold induction at 1 µM is 1.01 to 1.3 and the fold induction at 4 µM lay within 1.31 to 1.5. Also, the 50% inhibitory concentration (IC50) in test [3] was at most 500 nM. In addition, in test [4], the fold induction at 0.3 µM is below 1, the fold induction at 1 µM was below 1 and the fold induction at 4 µM lay in the range of 1.01 to 2.5. The molecule further gave a Kd in test [5] of 3000 to 10000 nM.
Take `Cc1ncc(C(=O)Nc2cccc([C@H](C)Sc3nncn3C)c2)nc1C1CC1` [Compound 70, (S)-6-cyclopropyl-5-methyl-N-(3-(1-((4-methyl-4H-1,2,4-triazol-3-yl)thio)ethyl)phenyl)pyrazine-2-carboxamide]: in test [1] (setting [6]), the IC50 was in the range of 0.1 to 0.3 µM. Besides, in test [2], the fold induction at 0.3 µM lay in the range of 1.31 to 1.5, the fold induction at 1 µM was 1.31 to 1.5 and the fold induction at 4 µM lay within 1.51 to 1.75. Further, the IC50 in test [3] is at most 500 nM. In addition, in test [4], the fold induction at 0.3 µM was below 1, the fold induction at 1 µM fell in the range of 1.01 to 2.5 and the fold induction at 4 µM lay in the range of 2.51 to 5. This molecule registered a Kd in test [5] of 301 to 1000 nM.
For `COc1cc(C(=O)Nc2cccc([C@H](C)Sc3nncn3C)c2)nc(C(F)(F)F)c1` [Compound 71, (S)-4-methoxy-N-(3-(1-((4-methyl-4H-1,2,4-triazol-3-yl)thio)ethyl)phenyl)-6-(trifluoromethyl)picolinamide], the IC50 in test [1] (setting [6]) was 0.1 to 0.3 µM. Besides, in test [2], the fold induction at 0.3 µM lay within 1.01 to 1.3, the fold induction at 1 µM lay within 1.51 to 1.75 and the fold induction at 4 µM is above 1.76. Moreover, the IC50 in test [3] was at most 500 nM. Further, in test [4], the fold induction at 0.3 µM was 2.51 to 5, the fold induction at 1 µM lay within 2.51 to 5 and the fold induction at 4 µM was 5 to 7.5. The same molecule yielded a Kd in test [5] of 100 to 300 nM.
